Assay [1] deals with T1, human androgen receptor (Homo sapiens, UniProt P10275).
T1 construct: expressed in transfected cells
T1 sequence (P10275 1-920): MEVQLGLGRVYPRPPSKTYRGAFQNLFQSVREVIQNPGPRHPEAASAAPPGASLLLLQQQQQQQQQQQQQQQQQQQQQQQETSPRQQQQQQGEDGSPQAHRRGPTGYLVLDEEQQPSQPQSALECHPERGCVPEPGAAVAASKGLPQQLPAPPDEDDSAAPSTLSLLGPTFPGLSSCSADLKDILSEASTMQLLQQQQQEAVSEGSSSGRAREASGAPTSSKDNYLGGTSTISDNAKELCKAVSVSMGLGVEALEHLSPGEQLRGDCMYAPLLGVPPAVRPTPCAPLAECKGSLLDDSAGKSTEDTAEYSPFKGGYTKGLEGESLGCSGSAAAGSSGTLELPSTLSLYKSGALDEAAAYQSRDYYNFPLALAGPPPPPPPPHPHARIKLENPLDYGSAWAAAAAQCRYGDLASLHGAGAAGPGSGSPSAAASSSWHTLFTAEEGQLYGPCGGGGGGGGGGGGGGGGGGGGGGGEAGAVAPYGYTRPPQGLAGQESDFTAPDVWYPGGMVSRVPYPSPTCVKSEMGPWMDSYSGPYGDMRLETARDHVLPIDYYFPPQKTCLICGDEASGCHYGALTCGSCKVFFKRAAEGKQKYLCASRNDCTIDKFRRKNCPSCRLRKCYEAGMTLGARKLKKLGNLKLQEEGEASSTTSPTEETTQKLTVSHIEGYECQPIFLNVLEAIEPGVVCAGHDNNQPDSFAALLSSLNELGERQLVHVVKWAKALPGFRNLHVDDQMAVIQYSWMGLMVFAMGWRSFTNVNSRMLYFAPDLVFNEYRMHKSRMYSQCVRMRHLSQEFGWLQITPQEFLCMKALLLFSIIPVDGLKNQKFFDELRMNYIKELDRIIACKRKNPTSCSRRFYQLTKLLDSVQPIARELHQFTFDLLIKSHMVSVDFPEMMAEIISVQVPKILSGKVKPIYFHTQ
In words: Measurement of agonist effect on androgen receptor (reporter gene assay, 11A11B2 cells). The assay is classed as cell-based. The following applies: compound concentration showing a transcription activity of 5% (0.1 nmol/L DHT = 100%, assay medium alone = 0%), 48 hours. On the procedure: (§1) HeLa cells (purchased from Dai-Nippon Seiyaku K. K.) were cultured overnight in Dulbecco's Modified Eagle Medium containing no phenol red, but containing 3% charcoal-treated fetal bovine serum (hereafter referred to as DCC-FBS) (this medium is hereafter referred to as phenol-red-free DMEM). An MMTV-Luc-Hyg vector (reporter plasmid with mouse mammary tumor virus long terminal repeat, containing an androgen response element and a hygromycin resistance gene: a vector obtained by substituting a chloramphenicol acetyl transferease gene of a GM-CAT vector (A.T.C.C No. 67282) purchased from the A.T.C.C. with the firefly luciferase gene, and inserting a hygromycin resistance gene as a drug resistant gene), and pSG5-hAR-neo (human androgen receptor expression vector: a vector having an androgen receptor gene under the control of the SV40 promoter, and having a neomycin resistance gene inserted as a drug resistance gene) were transfected into the HeLa cells using an FuGENE™ 6 Transfection Reagent (obtained from Roche).
(§2) The clone cells thus obtained (11A11B2 cells) were maintained and propagated using DMEM containing 400 μg/mL neomycin, 200 μg/mL hygromycin and 10% FBS, and were propagated using phenol-red-free DMEM containing 10% DCC-FBS three to four days prior to the performance of an androgen receptor reporter gene assay.
The 11A11B2 cells were inoculated in a white clear-bottomed 96-well microplate (COSTAR) so that the cell concentration was 1.0×10^4/well, and were cultured overnight using phenol-red-free DMEM containing 3% DCC-FBS (hereafter referred to as the assay medium). Samples of the assay medium containing the compounds of the Examples and compounds of the Comparative Examples were added so that the final concentrations of the compounds of the Examples and compounds of the Comparative Examples were 1, 10, 100, 1,000 and 10,000 nmol/L), and the cells were cultured for 48 hours, after which the transcription activity value was measured. The transcription activity was measured using a Bright-Glo™ Luciferase Assay System (Promega).
The transcription activity rates of the compounds of the Examples were calculated from the transcription activity measured by the abovementioned method, with the transcription activity value obtained at 0.1 nmol/L DHT taken as 100%, and the transcription activity value in the case of the assay medium alone taken as 0%. The compound concentration showing a transcription activity of 5% (EC5 value) was calculated from a linear equation for two points on either side of 5%.

In assay [2] the target is T1, human androgen receptor. In words: Investigation of antagonist effect on androgen receptor (reporter gene assay, 11A11B2 cells, with DHT). Format: cell-based. Here is the method: as §1, §2
The 11A11B2 cells were inoculated in a white clear-bottomed 96-well microplate (COSTAR) so that the cell concentration was 1.0×10^4/well, and were cultured overnight. The assay medium containing DHT was added so that the final concentration of DHT was 0.1 nmol/L, and samples of the assay medium containing the compounds of the Examples or compounds of the Comparative Examples were added so that the final concentrations of the compounds of the Examples or compounds of the Comparative Examples were 1, 10, 100, 1,000 and 10,000 nmol/L, respectively. After culturing for 48, hours, the transcription activity values were measured. The transcription activity was measured using a Bright-Glo™ Luciferase Assay System (Promega).
The transcription activity rates of the compounds of the Examples were calculated from the transcription activity measured by the abovementioned method, with the transcription activity value obtained at 0.1 nmol/L DHT taken as 100%, and the transcription activity value in the case of the assay, medium alone taken as 0%.
A general note: A reporter such as luciferase makes a cellular process visible.

The mark [3] stands for this setting: with 0.1 nmol/L DHT, transcription activity rate of Test Example 1 subtracted, 11A11B2 cells, 48 hours, read-out: IC50.

Where two headings read alike, the source gives them in different places.

Compound `CN1C(=S)N(c2ccc(C#N)c(C(F)(F)F)c2)C(=O)C1(C)C` [Comparative Example 1, 4-(5-oxo-2-thioxo-3,4,4-trimethyl-1-imidazolidinyl)-2-trifluoromethylbenzonitrile, reference compound] displayed an EC5 on human androgen receptor [1] of 8e-05 µM. `CC(=O)NCCN1C(=S)N(c2ccc(C#N)c(C(F)(F)F)c2)C(=O)C1(C)C` [Comparative Example 2, 4-[3′-(2″-N-acetylaminoethyl)-4′,4′-dimethyl-5′-oxo-2′-thioxo-1′-imidazolidinyl]-2-trifluoromethylbenzonitrile, reference compound] yielded an EC5 on human androgen receptor [1] of 3 µM.

Regarding `CCOC(=O)N1CCC(N2C(=S)N(c3ccc(C#N)c(Cl)c3)C(=O)C2(C)C)CC1` [Example 2, 4-[3-(1-ethoxycarbonylpiperidin-4-yl)-4,4-dimethyl-5-oxo-2-thioxoimidazolidin-1-yl]-2-chlorobenzonitrile], the IC50 against human androgen receptor [2] was determined as 80 nM. Moreover, on human androgen receptor [1], the EC5 amounted to 8 µM. For the compound `CC(=O)N1CCC(N2C(=S)N(c3ccc(C#N)c(C(F)(F)F)c3)C(=O)C2(C)C)CC1` [Example 4, 4-[3-(1-acetylpiperidin-4-yl)-4,4-dimethyl-5-oxo-2-thioxoimidazolidin-1-yl]-2-trifluoromethylbenzonitrile], at human androgen receptor [2] (setting [3]), the IC50 came to 300 nM. In addition, the EC5 on human androgen receptor [1] was greater than 10 µM. In the case of `CCS(=O)(=O)N1CCC(N2C(=S)N(c3ccc(C#N)c(C(F)(F)F)c3)C(=O)C2(C)C)CC1` [Example 5, 4-[3-(1-ethanesulfonylpiperidin-4-yl)-4,4-dimethyl-5-oxo-2-thioxoimidazolidin-1-yl]-2-trifluoromethylbenzonitrile], the IC50 on human androgen receptor [2] is 300 nM. Also, on human androgen receptor [1], the EC5 is greater than 10 µM.

On to `CC(=O)N1CCC(N2C(=S)N(c3ccc(C#N)c(Cl)c3)C(=O)C2(C)C)CC1` [Example 6, 4-[3-(1-acetylpiperidin-4-yl)-4,4-dimethyl-5-oxo-2-thioxoimidazolidin-1-yl]-2-chlorobenzonitrile], for which inhibition against human androgen receptor [2] was half-maximal at 200 nM (IC50). At human androgen receptor [1], this compound gave an EC5 greater than 10 µM. For `CCC(=O)N1CCC(N2C(=S)N(c3ccc(C#N)c(Cl)c3)C(=O)C2(C)C)CC1` [Example 7, 4-[3-(1-propionylpiperidin-4-yl)-4,4-dimethyl-5-oxo-2-thioxoimidazolidin-1-yl]-2-chlorobenzonitrile] the same measures were 300 nM and greater than 10 µM. For `CCCS(=O)(=O)N1CCC(N2C(=S)N(c3ccc(C#N)c(Cl)c3)C(=O)C2(C)C)CC1` [Example 8, 4-[3-(1-propanesulfonylpiperidin-4-yl)-4,4-dimethyl-5-oxo-2-thioxoimidazolidin-1-yl]-2-chlorobenzonitrile] the same measures were 300 nM and greater than 10 µM. The like results for `CCS(=O)(=O)N1CCC(N2C(=S)N(c3ccc(C#N)c(Cl)c3)C(=O)C2(C)C)CC1` [Example 9, 4-[3-(1-ethanesulfonylpiperidin-4-yl)-4,4-dimethyl-5-oxo-2-thioxoimidazolidin-1-yl]-2-chlorobenzonitrile] were, in that order, 300 nM and greater than 10 µM. `CCS(=O)(=O)N1CCC(N2C(=O)N(c3ccc(C#N)c(C(F)(F)F)c3C)C(=O)C2(C)C)CC1` [Example 10, 4-[3-(1-ethanesulfonylpiperidin-4-yl)-4,4-dimethyl-2,5-dioxoimidazolidin-1-yl]-2-trifluoromethyl-3-methylbenzonitrile]: at human androgen receptor [2] (setting [3]), the IC50 was 600 nM. The compound also displayed an EC5 on human androgen receptor [1] greater than 10 µM. At human androgen receptor [1], `CCNC(=O)N1CCC(N2C(=S)N(c3ccc(C#N)c(C(F)(F)F)c3)C(=O)C2(C)C)CC1` [Example 38, 4-[3-(1-ethylaminocarbonylpiperidin-4-yl)-4,4-dimethyl-5-oxo-2-thioxoimidazolidin-1-yl]-2-trifluoromethylbenzonitrile] had an EC5 greater than 10 µM.

Take `CCNC(=O)N1CCC(N2C(=S)N(c3ccc(C#N)c(Cl)c3)C(=O)C2(C)C)CC1` [Example 40, 4-[3-(1-ethylaminocarbonylpiperidin-4-yl)-4,4-dimethyl-5-oxo-2-thioxoimidazolidin-1-yl]-2-chlorobenzonitrile]: the EC5 at human androgen receptor [1] is greater than 10 µM. Take `CCNS(=O)(=O)N1CCC(N2C(=S)N(c3ccc(C#N)c(C(F)(F)F)c3)C(=O)C2(C)C)CC1` [Example 42, 4-[3-(1-ethylaminosulfonylpiperidin-4-yl)-4,4-dimethyl-5-oxo-2-thioxoimidazolidin-1-yl]-2-trifluoromethylbenzonitrile]: the IC50 at human androgen receptor [2] (setting [3]) was 700 nM. The compound `CC1(C)C(=O)N(c2ccc(C#N)c(C(F)(F)F)c2)C(=S)N1C1CCN(C(=O)OCC(O)CO)CC1` (centres unmarked) [Example 45, 4-[3-(4-cyano-3-trifluoromethylphenyl)-5,5-dimethyl-4-oxo-2-thioxoimidazolidin-1-yl]piperidine-1-carboxylic acid 2,3-dihydroxypropyl ester] had an EC5 at human androgen receptor [1] greater than 10 µM.

As to `COc1cc(N2C(=O)C(C)(C)N(c3ccc(Cl)c(NC(=O)OCC(O)CO)c3)C2=S)ccc1C#N` (centres unmarked) [Example 51, {2-chloro-5-[3-(4-cyano-3-methoxyphenyl)-5,5-dimethyl-4-oxo-2-thioxoimidazolidin-1-yl]phenyl}-carbamic acid 2,3-dihydroxypropyl ester], at human androgen receptor [1], the EC5 was greater than 10 µM. On the same count and under the same terms, as for `CN(C)CCOC(=O)Nc1cc(N2C(=S)N(c3ccc(C#N)c(Cl)c3)C(=O)C2(C)C)ccc1Cl` [Example 53, {2-chloro-5-[3-(4-cyano-3-chlorophenyl)-5,5-dimethyl-4-oxo-2-thioxoimidazolidin-1-yl]phenyl}-carbamic acid 2-dimethylaminoethyl ester], the figure is greater than 10 µM; as for `CC1(C)C(=O)N(c2ccc(C#N)c(Cl)c2)C(=S)N1c1ccc2sc(NC(=O)NCC(O)CO)nc2c1` (centres unmarked) [Example 62, 1-{5-[3-(3-chloro-4-cyanophenyl)-5,5-dimethyl-4-oxo-2-thioxoimidazolidin-1-yl]benzothiazol-2-yl}-3-(2,3-dihydroxypropyl)urea], greater than 10 µM. Same read-out and setting: as for `CC1(C)C(=O)N(c2ccc(C#N)c(C(F)(F)F)c2)C(=S)N1c1ccc(Cl)c(NC(=O)CCC(N)=O)c1` [Example 67, N-{2-chloro-5-[3-(4-cyano-3-trifluoromethylphenyl)-5,5-dimethyl-4-oxo-2-thioxoimidazolidin-1-yl]phenyl}-succinamide], the figure is greater than 10 µM.

What is called IC50 is the midpoint of a concentration-inhibition curve.

The values are drawn from patent US8470829B2 (priority 2004, dated 2013).
